Values quoted from earlier work in US20100112083A1, “PHARMACEUTICAL PRODUCT FOR MODULATING BONE FORMATION, PROCESS FOR MODULATING BONE FORMATION” (priority 2007, published 2010).

Test system: mesenchymal stem cells
Settings: by activating sirtuin protein Sirt1

Oc1ccc(/C=C/c2cc(O)cc(O)c2)cc1 [trans-resveratrol]
differentiation of mesenchymal stem cells into osteoblasts: promoted the selective differentiation
